This passage reports IC50 results from patent EP0469547B1, “4-Amino-delta4,6-steroids and their use as 5alpha-reductase inhibitors” (MERRELL PHARMACEUTICALS INC., priority 1990, dated 1992).

The term pIC50 denotes −log10 of the IC50, conventionally taken in molar units. Low readings indicate a high IC50, high ones a low IC50.

pIC50: −log10 of the molar value.

For this test, the target named is T1, steroid 5α-reductase (Homo sapiens, UniProt P31213).
T1 construct: Microsomal preparations of the steroid 5α-reductase enzyme (protein) were obtained from human prostate tissue; from tissue; host or cells: human prostate tissue (microsomal preparation)
T1 sequence (P31213 1-254): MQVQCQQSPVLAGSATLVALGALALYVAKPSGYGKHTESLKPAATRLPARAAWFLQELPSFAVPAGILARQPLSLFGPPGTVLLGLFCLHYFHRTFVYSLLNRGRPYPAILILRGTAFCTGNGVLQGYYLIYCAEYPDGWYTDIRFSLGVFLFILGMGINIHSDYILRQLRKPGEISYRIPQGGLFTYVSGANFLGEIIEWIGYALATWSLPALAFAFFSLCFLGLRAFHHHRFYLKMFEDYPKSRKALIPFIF
The test can be described thus: 5α-reductase inhibition test with human prostate microsomal preparations (conversion of 1,2-³H-testosterone to dihydrotestosterone, HPLC). Format: biochemical. As to the method:
Microsomal preparations of the steroid 5α-reductase enzyme (protein) were obtained from human prostate tissue and stored in aliquots. Protein concentration was determined prior to use of the samples. In the method itself, individual assays for 5α-reductase activity contained 0.1M phosphate citrate buffer, pH 5.6, 1mM EDTA, 7 to 22 µg of microsomal protein, 1mM NADPH, 5 mM glucose-6-phosphate, 1 IU/ml glucose-6-phosphate dehydrogenase, 1,2-³H-testosterone, and test compound, dissolved in dimethyl sulfoxide and then diluted in phosphate-citrate buffer to yield a final assay concentration of 0.1% (v/v) dimethyl sulfoxide. The same buffer and the same quantity of dimethyl sulfoxide, without any test compound is used for the control assays. The total assay volume was 100 µl and assays were performed in duplicate. The reaction was initiated by the addition of the testosterone, and incubated for 30 minutes at 25°C. The assay is linear with time to 30 minutes.
Depending on the nature of the inhibition, testosterone concentration was typically varied from 0.15 µM (approximately 0.5 Km) to 10 Km with radioactive label constant at 0.15 µCi per assay. The amount of test compound added was varied to provide final concentrations of 1 nM to 100 µM. The reaction was quenched by the addition of 50 volumes of chloroform:methanol (2:1). The steroids were then extracted and separated by high pressure liquid chromatography and the amounts of testosterone and dihydrotestosterone present were determined to determine the percent conversion of testosterone to dihydrotestosterone and to calculate the 5α-reductase activity. The activity of the test compound was then expressed as the IC₅₀, or the concentration of test compound that produced a 50% inhibition of the testosterone conversion. When compounds of the present invention were tested in this way, the following results were observed: […]

On to `CC(C)N(C(=O)[C@H]1CC[C@H]2[C@@H]3C=CC4=C(N)C(=O)CC[C@]4(C)[C@H]3CC[C@]12C)C(C)C` [4-Amino-N,N-bis(1-methylethyl)-3-oxoandrosta-4,6-diene-17β-carboxamide], for which the pIC50 is 7.80. The value for `CC(C)(C)NC(=O)[C@H]1CC[C@H]2[C@@H]3C=CC4=C(N)C(=O)CC[C@]4(C)[C@H]3CC[C@]12C` [4-Amino-N-(1,1-dimethylethyl)-3-oxoandrosta-4,6-diene-17β-carboxamide] was 8.10. The value for `CC(=O)[C@H]1CC[C@H]2[C@@H]3C=CC4=C(N)C(=O)CC[C@]4(C)[C@H]3CC[C@]12C` [4-Aminopregna-4,6-diene-3,20-dione] was 7.60.
